Where two headings read alike, the source gives them in different places.
Key:
[1] = target: T1, histone deacetylase, subtype 1 (HDAC1) (Homo sapiens, UniProt Q13547); experiment: HDAC1-Flag assay (in vitro deacetylation assay); format: biochemical; settings: concentration for 50% inhibition of deacetylation, substrate at Km, unit inferred, text gives nm, read-out: HDAC Inhibition
T1 construct: Flag; made in house
Description: Novel compounds were tested for their ability to inhibit histone deacetylase, subtype 1 (HDAC1) using an in vitro deacetylation assay. The enzyme source for this assay was an epitope-tagged human HDAC1 complex immuno-purified from stably expressing mammalian cells. The substrate consisted of a commercial product containing an acetylated lysine side chain (BIOMOL Research Laboratories, Inc., Plymouth Meeting, Pa.). Upon deacetylation of the substrate by incubation with the purified HDAC1 complex, a fluorophore is produced that is directly proportional to the level of deacetylation.

[2] = system: murine erythroleukemia cell line SC9; experiment: MTS assay (Cell Titer 96 Aqueous One Solution Cell Proliferation Assay); format: cell-based; settings: unit inferred, unit nm
Description: The novel compounds of the present invention were tested for their ability to inhibit proliferation of the murine erythroleukemia cell line SC9.
The MTS assay, also referred to as the Cell Titer 96 Aqueous One Solution Cell Proliferation Assay, is a calorimetric method for determining the number of viable cells in proliferation, cytotoxicity or chemosensitivity assays. The MTS reagent contains a novel tetrazolium compound [3-(4,5-dimethylthiazol-2-yl)-5-(3-carboxymethoxyphenyl)-2-(4-sulfophenyl)-2H-tetrazolium, inner salt] and electron coupling reagent (phenazine ethosulfate;PES). Murine erythroleukemia cells (SC-9) were incubated with vehicle or increasing concentrations of compound for 48 hours. Cell proliferation was quantitated by adding a small amount of the MTS reagent directly to culture wells, incubating for 1-4 hours and then recording the absorbance at 490 nm with a 96-well plate reader. The quantity of formazan product, as measured by […] absorbance, is directly proportional to the number of living cells in culture.

[3] = Table 1, benzothiophene backbone
[4] = Mus musculus, SC9, 48 h, Table 3, concentration inhibiting proliferation of SC9 cells
[5] = Table 3, concentration inhibiting proliferation of SC9 cells, 48 hours

T1 sequence (Q13547 whole entry): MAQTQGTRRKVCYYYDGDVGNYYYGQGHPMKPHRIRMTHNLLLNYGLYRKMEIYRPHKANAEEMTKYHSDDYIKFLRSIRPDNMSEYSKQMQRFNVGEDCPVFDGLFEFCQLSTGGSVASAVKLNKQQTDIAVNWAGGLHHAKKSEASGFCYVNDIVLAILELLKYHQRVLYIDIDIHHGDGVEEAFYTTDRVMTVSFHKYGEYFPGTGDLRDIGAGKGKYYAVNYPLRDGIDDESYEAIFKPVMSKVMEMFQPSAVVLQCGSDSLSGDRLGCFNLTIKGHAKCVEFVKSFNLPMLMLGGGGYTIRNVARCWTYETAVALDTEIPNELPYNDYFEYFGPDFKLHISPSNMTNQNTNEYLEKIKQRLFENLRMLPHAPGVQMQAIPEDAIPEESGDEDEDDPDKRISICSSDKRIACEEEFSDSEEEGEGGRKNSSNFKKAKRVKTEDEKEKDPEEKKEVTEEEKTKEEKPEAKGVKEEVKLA

Row | SMILES | IC50 [1, 3] | IC50 [2, 4] | IC50 [2, 5] | IC50 ([1]; Table 2, thiophene backbone)
1 | O=C(CN1CCN(C(=O)OCc2ccccc2)CC1)Nc1ccc2cc(C(=O)NO)sc2c1 [Compound 91] | 0.178 ± 0.0558 µM | 0.899 µM |  | 
2 | O=C(NO)c1cc2cc(CNCc3ccc(Cl)cc3)ccc2s1 [Compound 153] | 0.124 ± 0.024 µM | 0.531 µM |  | 
3 | O=C(NO)c1cc2cc(NC(=O)c3cccc4ccccc34)ccc2s1 [Compound 25] | 0.14 ± 0.0141 µM | 0.545 µM |  | 
4 | O=C(NO)c1cc2cc(CNCc3ccccn3)ccc2s1 [Compound 142] | 0.258 ± 0.017 µM | 0.714 µM |  | 
5 | O=C(NO)c1cc2cc(CNCC3CCCCC3)ccc2s1 [Compound 164] | 0.207 ± 0.0381 µM | 0.545 ± 0.024 µM |  | 
6 | COc1ccccc1N1CCN(CC(=O)Nc2ccc3cc(C(=O)NO)sc3c2)CC1 [Compound 107] | 0.079 ± 0.0056 µM | 0.309 µM |  | 
7 | O=C(NO)c1cc2cc(CNCCc3ccccc3)ccc2s1 [Compound 151] | 0.203 ± 0.0148 µM | 0.947 µM |  | 
8 | O=C(NO)c1cc2cc(CNCCCCc3ccccc3)ccc2s1 [Compound 156] | 0.275 ± 0.0346 µM | 0.966 µM |  | 
9 | O=C(NO)c1cc2cc(CNCc3ccccc3)ccc2s1 [Compound 99] | 0.144 ± 0.053 µM | 0.474 ± 0.0657 µM |  | 
10 | O=C(NO)c1cc2cc(NC(=O)C(c3ccccc3)c3ccccc3)ccc2s1 [Compound 39] | 0.189 ± 0.0049 µM | 0.666 µM |  | 
11 | O=C(NO)c1cc2cc(CNC3CCN(Cc4ccccc4)CC3)ccc2s1 [Compound 146] | 0.524 ± 0.102 µM | 0.891 µM |  | 
12 | O=C(NO)c1cc2cc(CNCCC(c3ccccc3)c3ccccc3)ccc2s1 [Compound 155] | 0.967 ± 0.215 µM | 0.39 µM |  | 
13 | O=C(Cc1ccccc1)Nc1ccc(C(=O)NO)s1 [Compound 59] |  | 0.642 µM |  | 0.0635 ± 0.0077 µM
14 | O=C(NO)c1cc2ccc(NC(=O)C3(c4ccc(Cl)cc4)CCC3)cc2s1 [Compound 127] | 0.115 ± 0.0098 µM | 0.935 µM |  | 
15 | O=C(CN1CCC(Cc2ccccc2)CC1)Nc1ccc2cc(C(=O)NO)sc2c1 [Compound 90] | 0.0995 ± 0.0374 µM | 0.704 ± 0.0961 µM |  | 
16 | CCC(C(=O)Nc1ccc2sc(C(=O)NO)cc2c1)c1ccccc1 (stereo not shown) [Compound 86] | 0.0925 ± 0.0233 µM | 0.836 ± 0.0289 µM |  | 
17 | COc1cccc(CNCc2ccc3sc(C(=O)NO)cc3c2)c1 [Compound 148] | 0.1 ± 0.0127 µM | 0.43 ± 0.132 µM |  | 
18 | O=C(NO)c1cc2ccc(CNCCc3c[nH]c4ccccc34)cc2s1 [Compound 188] | 0.0825 ± 0.0162 µM | 0.191 µM |  | 
19 | COc1ccc(CNCc2ccc3sc(C(=O)NO)cc3c2)cc1 [Compound 162] | 0.11 ± 0.0141 µM | 0.587 µM |  | 
20 | O=C(Nc1ccc2sc(C(=O)NO)cc2c1)OCc1ccccc1 [Compound 36] | 0.119 µM | 0.717 µM |  | 

Further compounds by falling IC50 [1, 3], results first:

Row | IC50 [1, 3] | IC50 [2, 4] | IC50 [2, 5] | IC50 ([1]; Table 2, thiophene backbone) | SMILES
21 | 0.0755 ± 0.0077 µM | 0.201 ± 0.0593 µM |  |  | COc1ccccc1CNCc1ccc2sc(C(=O)NO)cc2c1 [Compound 147]
22 | 0.0745 ± 0.0176 µM | 0.537 ± 0.124 µM |  |  | CN(C(=O)Cc1ccccc1)c1ccc2cc(C(=O)NO)sc2c1 [Compound 106]
23 | 0.072 ± 0.0141 µM | 0.493 µM |  |  | CC(C)(C(=O)Nc1ccc2cc(C(=O)NO)sc2c1)c1ccccc1 [Compound 189]
24 | 0.061 ± 0.0155 µM | 0.833 ± 0.065 µM |  |  | O=C(Cc1cccnc1)Nc1ccc2cc(C(=O)NO)sc2c1 [Compound 110]
25 | 0.0595 ± 0.0035 µM |  | 0.528 µM |  | CCC(C(=O)Nc1ccc2cc(C(=O)NO)sc2c1)c1ccccc1 (stereo not shown) [Compound 181]
26 | 0.059 ± 0.007 µM | 0.83 ± 0.393 µM |  |  | O=C(CN1CCN(c2ncccn2)CC1)Nc1ccc2cc(C(=O)NO)sc2c1 [Compound 101]
27 | 0.0555 ± 0.0091 µM | 0.093 µM |  |  | COc1cccc(CNCc2ccc3cc(C(=O)NO)sc3c2)c1 [Compound 186]
28 | 0.045 ± 0.0056 µM | 0.519 ± 0.0657 µM |  |  | COc1cccc(N2CCN(CC(=O)Nc3ccc4cc(C(=O)NO)sc4c3)CC2)c1 [Compound 100]
29 | 0.0415 ± 0.0021 µM |  | 0.225 ± 0.0267 µM |  | CCC(C(=O)Nc1ccc2cc(C(=O)NO)sc2c1)c1ccccc1 (stereo not shown) [Compound 98]
30 | 0.038 µM | 0.306 ± 0.0785 µM |  |  | O=C(CN1CCCCC1)Nc1ccc2cc(C(=O)NO)sc2c1 [Compound 115]
31 | 0.026 ± 0.0014 µM | 0.441 µM |  |  | O=C(NO)c1cc2ccc(NS(=O)(=O)c3cccc4ccccc34)cc2s1 [Compound 13]
32 | 0.023 ± 0.0014 µM | 0.056 µM |  |  | COc1ccc(CNCc2ccc3cc(C(=O)NO)sc3c2)cc1 [Compound 187]
33 | 0.0215 ± 0.0035 µM | 0.917 µM |  |  | O=C(NO)c1cc2ccc(NS(=O)(=O)c3ccc4ccccc4c3)cc2s1 [Compound 14]
34 | 0.0195 ± 0.0007 µM | 0.205 ± 0.0375 µM |  |  | COc1ccc(CC(=O)Nc2ccc3cc(C(=O)NO)sc3c2)cc1 [Compound 89]
35 | 0.019 ± 0.0056 µM | 0.238 µM |  |  | O=C(Cc1ccc(Cl)cc1)Nc1ccc2cc(C(=O)NO)sc2c1 [Compound 88]
36 | 0.018 ± 0.0056 µM | 0.206 ± 0.0792 µM |  |  | CC(C(=O)Nc1ccc2cc(C(=O)NO)sc2c1)c1ccccc1 (stereo not shown) [Compound 123]
37 | 0.0115 ± 0.0021 µM | 0.25 ± 0.0572 µM |  |  | O=C(Cc1ccccc1)Nc1ccc2cc(C(=O)NO)sc2c1 [Compound 6]
38 | 0.0065 ± 0.0007 µM | 0.2 ± 0.0197 µM |  |  | O=C(CN(CC(=O)Nc1ccccc1)c1ccc2cc(C(=O)NO)sc2c1)Nc1ccccc1 [Compound 178]

From US7935724B2, “Thiophene and benzothiophene hydroxamic acid derivatives” (Merck HDAC Research, LLC, priority 2003, dated 2011)
